Measured values: patent US3997506A (priority 1974, dated 1976)
Several values for one entry are separate records, joined by “and”; a condition that tells them apart may be missing. Identical values can stand only once. Like-named read-outs stand apart in the source and are kept apart here.

How the values were obtained:
leucocytes from rats [1] = conditions: individual rat, 2 mg/kg oral
leucocytes from rats [2] = assay type: in vivo, Sprague Dawley SIV 50 he-rats; conditions: 2 mg/kg oral
leucocytes from rats [3] = conditions: individual rat, 2 mg/kg oral; remark: listed apart in the source
human leucocytes [4] = conditions: 0.01 μg/ml to 10 μg/ml; up to 30 hours; no PHA
leucocytes from rats [5] = conditions: 6 hours after administration, 2 mg/kg oral
human leucocytes [6] = system: human leucocytes
in vitro = assay type: cell-based, human; conditions: human, leucocytes, read-out: % of dead cells
Protocol: (§1) The cytotoxicity has been investigated on human leucocytes by means of the viability test with Trypan blue.
(§2) a. In a first experimentation cultures of leucocytes of a voluntary […] were prepared and caused to undergo incubation with phytohemagglutinin (PHA) and with different concentrations of colchicine or of its derivative (C1 = 2.5 μg/ml of culture, C3 = 10 μg/ml, C5 = 30 μg/ml, C6 = 50 μg/ml). Leucocytes only containing PHA served as controls.
(§3) After 3, 42, 68 and 72 hours of incubation a sample of each culture was contacted by a drop of Trypan blue and laid on a slide of a microscope. Then took place the counting of the dead cells (those with assumed an […] colour) and of all the cells present on the slide in order to obtain the ratio of the number of dead cells to the total number of cells. The results expressed as a rate in per cent are shown in the accompanying table 8.
(§4) b. After the experimentation which has just been described, the study of cytotoxicity has been continued with two other samples of human leucocytes still by means of the viability test with Trypan blue.
(§5) C1 = 2.5 μg/ml of culture
(§6) C6 = 50 μg/ml of culture;
(§7) and for the carboxy-1-adamantane fraction to:
(§8) C3 = 4.5 μg/ml of culture
(§9) C6 = 22.5 μg/ml of culture.
(§10) Leucocytes only containing phytohemagglutinin and others containing phytohemagglutinin and 50 μl of methanol served as controls.
(§11) The percentage of dead cells was determined after different numbers of hours of incubation.

human leucocytes [7] = test: in vitro; assay type: cell-based; conditions: for % of dead cells: C6 = 50 μg/ml
Protocol: as §1, §2, §3, §4, §5, §6, §7, §8, §9, §10, §11

[8] = system: oedema produced by crystals of urate in the hind paw of the rat; assay type: in vivo, Sprague Dawely female rats; conditions: for % of inhibition of edema / Difference in weight between left and right leg (Average ± standard deviation of mean term): three subcutaneous injections, 6 h after urate
[9] = system: Sprague Dawley SIV 50 rat; assay type: in vivo, male and female Sprague Dawley SIV 50 rat; conditions: for Death rate: 10 days
From the text: The high toxicity of the new derivative of colchicine (N-desacetyl-N-adamantoyl-thiocolchicine) has been investigated through the oral way with the male and female Sprague Dawley SIV 50 rat having an average weight of 100 g.
Two experiments have been carried out. In the first one, only the high toxicity of the derivative has been studied; in the second one, the high toxicity of the derivative has been compared with that of colchicine.
The derivative and colchicine have been administered in suspension in propylene glycol through an oesophageal tube at the rate of 2 ml per rat for the first experiment and of 1 ml for the second one.
The animals have been observed for 10 days.

[10] = 6 hours after administration, individual rat, 2 mg/kg
[11] = before administration, individual rat, 2 mg/kg
[12] = first experimentation, C1 = 2.5 μg/ml
[13] = first experimentation, C3 = 10 μg/ml
[14] = first experimentation, C5 = 30 μg/ml

**Q.** Which results are given for `COc1cc2c(c(OC)c1OC)-c1ccc(SC)c(=O)cc1C(NC(=O)C13CC4CC(CC(C4)C1)C3)CC2` (single isomer, unassigned) [Derivative, N-desacetyl-N-adamantoyl-thiocolchicine]?
**A.** Basophils (leucocytes from rats [1]; 6 hours after administration): 0; Eosinophils (leucocytes from rats [1]; 6 hours after administration): 0; Lymphocytes (leucocytes from rats [1]; 6 hours after administration, 2 mg/kg): 94 and 82 and 86; Basophils (leucocytes from rats [1]; before administration): 0; Eosinophils (leucocytes from rats [1]; before administration): 0; Lymphocytes (leucocytes from rats [1]; before administration, 2 mg/kg): 84 and 90 and 82; Monocytes (leucocytes from rats [1]; before administration, 2 mg/kg): 2 and 1; Neutrophils with segmented nucleus (leucocytes from rats [1]; before administration, 2 mg/kg): 12 and 8; embodied radioactivity, mean (leucocytes from rats [2]; 6 hours after administration, group mean): 10,664±2,087 cpm; cpm / number of lymphocytes, mean (leucocytes from rats [2]; 6 hours after administration, group mean, factor and spread printed on following lines): 4.71 × 10^-^2 cpm/number of lymphoc; Number of lymphocytes/culture (leucocytes from rats [2]; [10]): 172,500 lymphocytes/culture and 244,760 lymphocytes/culture and 261,900 lymphocytes/culture; embodied radioactivity (leucocytes from rats [2]; [10]): 8,466 cpm and 8,690 cpm and 14,836 cpm; cpm / number of lymphocytes (immunity response) (leucocytes from rats [2]; 6 hours after administration, individual rat, factor × 10^-^2, 2 mg/kg): 4.91 × 10^-^2 cpm/number of lymphoc and 3.55 × 10^-^2 cpm/number of lymphoc and 5.66 × 10^-^2 cpm/number of lymphoc; embodied radioactivity, mean (leucocytes from rats [2]; before administration, group mean): 12,227±2,228 cpm; Number of lymphocytes/culture (leucocytes from rats [2]; [11]): 132,480 lymphocytes/culture and 147,000 lymphocytes/culture and 271,460 lymphocytes/culture and 257,060 lymphocytes/culture; embodied radioactivity (leucocytes from rats [2]; [11]): 7,384 cpm and 10,195 cpm and 7,709 cpm and 13,619 cpm; Leucocytes / mm^3 (leucocytes from rats [3]; experiment 1, 6 hours after administration, 2 mg/kg): 9,050 / mm^3 and 8,450 / mm^3 and 9,350 / mm^3; Leucocytes / mm^3 (leucocytes from rats [3]; experiment 1, before administration, 2 mg/kg): 9,050 / mm^3 and 12,250 / mm^3 and 17,525 / mm^3; Leucocytes / mm^3 (leucocytes from rats [3]; experiment 2, 6 hours after administration): 5,400 / mm^3; Leucocytes / mm^3 (leucocytes from rats [3]; experiment 2, before administration, 2 mg/kg): 5,900 / mm^3 and 9,350 / mm^3; Leucocytes / mm^3 (leucocytes from rats [3]; experiment 3, 6 hours after administration): 13,500 / mm^3; Leucocytes / mm^3 (leucocytes from rats [3]; experiment 3, before administration, 2 mg/kg): 13,250 / mm^3 and 7,200 / mm^3; cytotoxicity (in words) (human leucocytes [4]): no cytotoxicity is detectable; cytotoxic effect (in words) (leucocytes from rats [5]): no cytotoxic effect has been noticed; % of dead cells (leucocytes from rats [5]; individual rat, 2 mg/kg, 360 min): 2% and 1% and 0%; number of leucocytes with increasing amounts (in words) (human leucocytes [6]; Table 9, 72 hours): still further lowered with the same amounts of the derivative; Count of leucocytes after 72 hours (human leucocytes [6]; Table 9, C1 = 2.5 μg/ml, control 412,500): 487,000; Count of leucocytes after 72 hours (human leucocytes [6]; Table 9, C3 = 10 μg/ml, control 412,500): 360,000; Count of leucocytes after 72 hours (human leucocytes [6]; Table 9, C5 = 30 μg/ml, control 412,500): 180,000; Count of leucocytes after 72 hours (human leucocytes [6]; Table 9, C6 = 50 μg/ml, control 412,500): 157,000; Count of leucocytes after 72 hours (human leucocytes [6]; Table 11, Culture I, C3 = 10 μg/ml): 430,000; Count of leucocytes after 72 hours (human leucocytes [6]; Table 11, Culture I, C6 = 50 μg/ml): 515,000; Count of leucocytes after 72 hours (human leucocytes [6]; Table 11, Culture II, C1 = 2.5 μg/ml): 140,000; Count of leucocytes after 72 hours (human leucocytes [6]; Table 11, Culture II, C3 = 10 μg/ml): 200,000; Count of leucocytes after 72 hours (human leucocytes [6]; Table 11, Culture II, C5 = 30 μg/ml): 245,000; Count of leucocytes after 72 hours (human leucocytes [6]; Table 11, Culture II, C6 = 50 μg/ml (two values given)): 290,000 and 345,000; number of leucocytes in absence or presence of substance (in words) (human leucocytes [6]; Table 11, very approximative): remain substantially the same; cytotoxicity at 4 h (in vitro; Culture I, C3 = 10 μg/ml): 15%; cytotoxicity at 4 h (in vitro; Culture I, C6 = 50 μg/ml): 17%; cytotoxicity at 22 h (in vitro; Culture I, C3 = 10 μg/ml): 12%; cytotoxicity at 22 h (in vitro; Culture I, C6 = 50 μg/ml): 22%; cytotoxicity at 46 h (in vitro; Culture I, C3 = 10 μg/ml): 42%; cytotoxicity at 46 h (in vitro; Culture I, C6 = 50 μg/ml): 53%; cytotoxicity at 76 h (in vitro; Culture I, C3 = 10 μg/ml): 40%; cytotoxicity at 76 h (in vitro; Culture I, C6 = 50 μg/ml): 62%; cytotoxicity at 23 h (in vitro; Culture II, C1 = 2.5 μg/ml): 8%; cytotoxicity at 23 h (in vitro; Culture II, C3 = 10 μg/ml): 11%; cytotoxicity at 23 h (in vitro; Culture II, C5 = 30 μg/ml): 16%; cytotoxicity at 46 h (in vitro; Culture II, C1 = 2.5 μg/ml): 4%; cytotoxicity at 46 h (in vitro; Culture II, C3 = 10 μg/ml): 13%; cytotoxicity at 46 h (in vitro; Culture II, C5 = 30 μg/ml): 22%; cytotoxicity at 72 h (in vitro; Culture II, C1 = 2.5 μg/ml): 26%; cytotoxicity at 72 h (in vitro; Culture II, C3 = 10 μg/ml): 41%; cytotoxicity at 72 h (in vitro; Culture II, C5 = 30 μg/ml): 43%; cytotoxicity at 72 h (in vitro; Culture II, C6 = 50 μg/ml, *x/x = 2 different tubes): 61%; cytotoxicity at 3 h (in vitro; [12]): 0%; cytotoxicity at 3 h (in vitro; [13]): 0%; cytotoxicity at 3 h (in vitro; [14]): 0%; cytotoxicity at 42 h (in vitro; [12]): 5%; cytotoxicity at 42 h (in vitro; [13]): 7%; cytotoxicity at 42 h (in vitro; [14]): 23%; cytotoxicity at 42 h (in vitro; first experimentation, C6 = 50 μg/ml): 32%; cytotoxicity at 68 h (in vitro; [12]): 5%; cytotoxicity at 68 h (in vitro; [13]): 9%; cytotoxicity at 68 h (in vitro; [14]): 20%; cytotoxicity at 72 h (in vitro; [12]): 9%; cytotoxicity at 72 h (in vitro; [13]): 12%; cytotoxicity at 72 h (in vitro; [14]): 35%; cytotoxicity, cultures I and II (in words) (human leucocytes [7]; Cultures I and II): does not seem to be very different from that of colchicine or methanol after 23 hours of incubation; however for longer periods of time and more especially with concentrations C5 and C6 it becomes more substantial; % of dead cells (human leucocytes [7]; first experimentation, 68 hours): very few; % of dead cells (human leucocytes [7]; first experimentation, 72 hours): very few; cytotoxicity, colchicine versus derivative (in words) (human leucocytes [7]; [12]): substantially the same; cytotoxicity compared with colchicine (in words) (human leucocytes [7]; first experimentation, higher concentrations): more cytotoxic than colchicine itself; % of inhibition of edema ([8]; 2 mg/kg): 10%; Difference in weight between left and right leg (Average ± standard deviation of mean term) ([8]; 2 mg/kg): 0.264 ± 0.031 g; % of inhibition of edema ([8]; 6 mg/kg): 50%; Difference in weight between left and right leg (Average ± standard deviation of mean term) ([8]; 6 mg/kg): 0.145 ± 0.019 g; protection against the oedema produced by crystals of urate (in words) ([8]; colchicine 2 mg/kg, derivative 6 mg/kg): significant protection; deaths (in words) ([9]; 3 g/kg): no death has been detected; Death rate ([9]; first experiment, 2.000 mg/kg oral): 0/10; Death rate ([9]; first experiment, 3.000 mg/kg oral): 0/10; Death rate ([9]; second experiment, 100 mg/kg oral): 0/6; Death rate ([9]; second experiment, 500 mg/kg oral): 0/6; Death rate ([9]; second experiment, 1,000 mg/kg oral): 0/6; Death rate ([9]; second experiment, 2,000 mg/kg oral): 0/6; Death rate ([9]; second experiment, 3,000 mg/kg oral): 0/6
